# Read-outs that look alike come from different tables or passages of the source.
# Legend:
# rats [1] = settings: acute administration, cited from earlier work
# rats [2] = experiment: NORT after 21 day administration, discrimination index; format: in vivo, rat; settings: for reversal of (+)MK-801-induced memory disturbances (DI): (+)MK-801 0.1 mg/kg
# Method: Standard laboratory food (LSM-B) and filtered water as well as environment enrichment were freely available. Animals were randomly divided into treatment groups using a computer-based random order generator. All of the experiments were performed by two observers unaware of the treatment applied between 9:00 and 14:00 on separate groups of animals.
# In the NOR test (NORT), rats were randomly divided into experimental groups (n = 8/group). […] All compounds were prepared immediately before administration and were injected intraperitoneally (i.p.) in a constant volume of 2 mL/kg. […] The control group received 1% Tween 80 on the same schedule.
# The test was carried out according to the method described by Ennaceur.[46] NORT was conducted in two black-painted wood boxes (60 cm × 60 cm × 60 cm). A video camera mounted above the boxes recorded all experiments. Two days before the test, the rats were placed in the empty experimental boxes for 5 min as a habituation to the test area. On the third day, the test was performed in 2 trials lasting for 3 min at one-hour intervals. First session, familiarization (T1) with two identical objects (A1 and A2) located in the opposite corners of the boxes, approximately 10 cm from the walls, and second trial, recognition (T2) with one familiar (A) and one novel object (B). Metal cans and glass jars with sand were used as the objects. The boxes were cleaned and dried after each measurement. The exploration time (E) of the objects (such as looking, licking, sniffing, or touching while sniffing) during T2 was measured, and the discrimination index (DI) was calculated according to the following formula: DI = (EB – EA)/(EA + EB).
# The normality of data distribution and the homogeneity of variance were checked using the Shapiro–Wilk’s test and Levene’s test, respectively. All behavioral results are shown as the means ± SEM.
# HepG2 = system: HepG2; set-up: method as in PMID 38190615, PMID 35228010; settings: tested at 0.1–100 μM; cited from earlier work
# SH-SY5Y cells [3] = experiment: MTS assay 72 h, neurotoxic effect; format: cell-based, human; settings: 10 and 50 μM
# Method: SHSY5Y cells were grown in DMEM supplemented by 10% FBS, L-glutamine (2 mM), and penicillin (100u/mL)/streptomycin (100 μg/mL). The cell line was tested for mycoplasma using DAPI staining and the LookOut Mycoplasma PCR Detection Kit (MP0035, Merck). The cell line was authenticated after thawing by a morphology check, cell proliferation rate evaluation, and species verification by PCR. Bacteria contamination was excluded. […] Subsequently, cells were subjected to a CellTiter 96 AQueous One Solution Cell Proliferation Assay (Promega), according to the manufacturer’s protocol. The absorbance at 490 nm was evaluated to estimate the cell number.
# SH-SY5Y cells [4] = settings: 50 μM, 27 h; cited from earlier work
# [5] = 1 mg/kg i.p., cited from earlier work
# [6] = set-up: method as in PMID 38190615, PMID 35228010; settings: LC/MS after biotransformation in rLMs; cited from earlier work
# [7] = set-up: method as in PMID 38190615; settings: serum, cited from earlier work
# HT-22 cell line [8] = experiment: protection against Aβ1–42, cell membrane damage (ToxiLight); format: cell-based, mouse; settings: 10 μM pretreatment 1 h, Aβ1–42 35 μM 16 h
# Method: Cells were cultured in Dulbecco’s modified Eagle’s Medium-high glucose (DMEM, GlutaMAX ThermoFisher) supplemented with 10% inactivated fetal bovine serum heat (Thermo Fisher), 100 IU/mL penicillin (Merck), and 100 μg/mL streptomycin (Merck). Cells were cultured in flasks (area 175 cm^2, Nunc) and incubated at 37 °C, 5% CO2. To measure the neuroprotective effect against Aβ1–42, cells were placed in a 96-well culture plate (5 × 10^3 cells per well, Falcon). To measure the toxicity of tested compounds, cells were placed in a 96-well culture plate (5 × 10^3 and 2 × 10^4 cells per well, Falcon).
# Stock solutions were prepared at a concentration of 10 mM for the tested compounds. A minimum of 1 mg of each tested compound was weighed and dissolved in an appropriate volume of dimethyl sulfoxide (DMSO). Serial dilutions were prepared in DMSO, and then, the diluted compounds were transferred to phosphate-buffered saline (PBS), mixed, and put into a medium with adherent cells. Before the assays, eventual precipitation or opalescence was checked. […]
# Then, 20 μL of adenylate kinase detection reagent was added. The luminescence was measured after 10 min of incubation with a plate reader, POLARstar Omega (BMG Labtech). The results are expressed as a percentage of the control (Aβ1–42), corresponding to the percentage of dead cells concerning the control sample.
# HT-22 cell line [9] = experiment: protection against Aβ1–42, ROS (CellROX); format: cell-based, mouse; settings: 10 μM pretreatment 1 h, Aβ1–42 35 μM 16 h
# Method: Cells were cultured in Dulbecco’s modified Eagle’s Medium-high glucose (DMEM, GlutaMAX ThermoFisher) supplemented with 10% inactivated fetal bovine serum heat (Thermo Fisher), 100 IU/mL penicillin (Merck), and 100 μg/mL streptomycin (Merck). Cells were cultured in flasks (area 175 cm^2, Nunc) and incubated at 37 °C, 5% CO2. To measure the neuroprotective effect against Aβ1–42, cells were placed in a 96-well culture plate (5 × 10^3 cells per well, Falcon).
# Stock solutions were prepared at a concentration of 10 mM for the tested compounds. A minimum of 1 mg of each tested compound was weighed and dissolved in an appropriate volume of dimethyl sulfoxide (DMSO). Serial dilutions were prepared in DMSO, and then, the diluted compounds were transferred to phosphate-buffered saline (PBS), mixed, and put into a medium with adherent cells. Before the assays, eventual precipitation or opalescence was checked.
# Aβ1–42 (Merck) was initially dissolved in 1,1,1,3,3,3- hexafluor-2-propanol (Merck). […] After this time, the Aβ1–42 solution was evaporated by using nitrogen gas. Next, DMSO was added to obtain a 2 mM stock solution of β-amyloid. […]
# After the end of incubation with the tested compounds, the supernatant was removed, and cells were incubated with CellROX (5 μM) in DMEM FluoroBrite (ThermoFisher) for 1 h at 37 °C. The results are expressed as a percentage of control (Aβ1–42).
# SH-SY5Y cells [10] = experiment: qRT-PCR of neurodegeneration-associated genes; format: cell-based, human; settings: 24 h
# NRF2 = experiment: Western blot for NRF2 (total and nuclear extracts); format: cell-based, human; settings: 10 μM, 24 h
# [11] = set-up: method as in PMID 38190615, PMID 35228010; settings: AMES test; cited from earlier work
# SH-SY5Y cells [12] = experiment: ROS assay (2',7'DCFH2-DA), rotenone-induced neurotoxicity; format: cell-based, human; settings: ROT 32.5 μM alone, 3 h
# Method: The ROS measurement was assayed by 2′,7′-dichlorofluorescin diacetate (2′, 7′DCFH2-DA, Sigma, no. D6883). The protocol was previously described in detail.[10] […] The following day, all treatments were carried out with warmed HBSS containing 25 mM HEPES (hereafter referred to as HBSS), and during the operational steps, the cells were kept at 37 °C to minimize temperature stress.
compound,measurement,setting,value
"COc1cc2c(cc1OC)C(=O)C(CC1CCN(Cc3ccccc3)CC1)C2 (stereo not drawn) [donepezil, reference compound]",active dose in NOR test (significantly reversed MK-801 memory disturbances),rats [1]; rat,"g Dose of a compound that in a statistically significant manner reversed memory disturbances caused by MK-801 in the novel object recognition (NOR) test in rats;[12],[13] active dose for donepezil was 1 mg/kg. mg/kg i.p"
same,influence on memory compared to vehicle-treated rats (DI),"rats [2]; 1 mg/kg/day i.p., 21 days, without (+)MK-801",No memory changing
same,reversal of (+)MK-801-induced memory disturbances (DI),"rats [2]; 1 mg/kg/day i.p., 21 days",reverse memory disturbances
same,minimal active chronic dose,"rats [2]; i.p., 21 days, reversal of (+)MK-801-induced memory impairments",1 mg/kg/day
"C[C@]12N[C@H](Cc3ccccc31)c1ccccc12 [(+)MK-801, reference compound]",effect on memory functions (DI),"rats [2]; 0.1 mg/kg i.p. once, 30 min before the test",induced deficits in memory functions
CN1CCN(c2nc(N)nc(C(C)(C)[Se]c3ccc4ccccc4c3)n2)CC1 [PPK-32],hepatotoxic (statistically significant HepG2 viability decrease),HepG2,>100 µM
same,neurotoxic effect (MTS),SH-SY5Y cells [3],no significant differences
same,reduction of cell viability compared to Ctr,SH-SY5Y cells [4],45%
same,detected in rat organs up to (time after administration),[5],up to 120 min
same,Cmax,"[5]; brain, highest value 30 min after administration",54.9 ng/g
same,t1/2λz,[5]; liver,1.42 h
same,"metabolic stability, % of remaining structure",[6],37%
same,AUC0–∞,[7]; 1 mg/kg i.p.,1833.92 ng·min/mL
same,Cmax,[7]; 1.0 mg/kg i.p.,34.9 ng/mL
same,protection of cell integrity against membrane destruction caused by Aβ1–42,HT-22 cell line [8],slightly more potent than the thioether WA-22
same,memory-protective action at doses as low as,"rats [1]; male Wistar rats, (+)MK-801",0.3 mg/kg
same,decrease of ROS induced by Aβ,HT-22 cell line [9],displayed the ability to decrease ROS
same,expression of beta-secretase BACE1,SH-SY5Y cells [10]; 10 μM,negatively regulate
same,NRF2 transcription,SH-SY5Y cells [10]; 10 and 50 μM,neither WA-22 nor PPK-32 were able to stimulate its transcription
same,"expression of NQO1, SOD1, and HO1",SH-SY5Y cells [10]; 10 and 50 μM,induce the expression
same,expression of pro-inflammatory gene NFkB,SH-SY5Y cells [10]; 10 and 50 μM,neither WA-22 nor PPK-32 were able to downregulate
same,reversal of (+)MK-801-induced memory disturbances (DI),"rats [2]; 1 mg/kg/day i.p., 21 days",inactive
same,reversal of (+)MK-801-induced memory disturbances (DI),"rats [2]; 3 mg/kg/day i.p., 21 days",significantly reversed
same,NRF2 protein amount (total extract),NRF2; GAPDH loading control,protein amount was not modulated
same,NRF2 translocation from cytoplasm to nucleus,"NRF2; nuclear extracts, H3 loading control",distinctly stronger than that upon WA-22 treatment
same,mutagenic,[11],no
"C=C(C)[C@H]1Cc2c(ccc3c2O[C@@H]2COc4cc(OC)c(OC)cc4[C@@H]2C3=O)O1 [ROT, Rotenone, reference compound]",ROS level (Ctr set as 100%),SH-SY5Y cells [12],176%
